Like-named read-outs stand apart in the source and are kept apart here.
Key:
[1] = system: production and secretion of NGF in brain astroglial cells; assay: Promoting activity for the production and secretion of NGF in brain astroglial cells of mouse (ELISA)
Protocol: The experiment was performed by inducing the astroglial cells from mouse forebrain to culture system according to the procedures of S. Furukawa et al. which is described in Biochem. Biophys. Res. Commun., 136, 57-63 (1986).
That is, forebrains of 8-day old mice were dissected out and cut into small pieces. […] Cells and cell clamps were recovered by centrifugation at 200 xg for 5 minutes. They were cultured in Dulbecco modified Eagle's medium (a product of Gibco Co. hereinafter abbreviated as DMEM) containing 10% of fetal calf serum, […] of penicillin, and 50 μg/ml of streptomycin, for 10 to 14 days with medium changes every 3 days. After completing confluency, the cells were dissociated by trypsin treatment and recultured in new culture flasks. This procedure was repeated further twice and more. […] The cells will hereinafter be referred to as astroglial cells.
Astroglial cells were innoculated in 24-well plates having a well surface area of 2.1 cm^2 (a product of Falcon Co.) at a cell density of about 3×10^4 cells/well and cultured for 3 days in DMEM . medium supplemented with 10% of fetal calf serum. After completing confluency about 10^7 cells/well), the medium was changed to DMEM medium (0.5 ml/well) supplemented with 0.5% of bovine serum albumin ((fraction V) and cultured for 3 days. The culture was further continued with medium changes every 3 days. After cells were practically synchronized in the quiscent stage, the medium was changed to 0.5 ml of the medium supplemented with 0.5% of bovine serum albumin and containing a prescribed concentration of test sample as illustrated in Tables. […] Data are expressed as fold increase in NGF content over that in the absence of the test sample. […] Data are presented as means ±SE of four determinations.

[2] = Acute toxicity (LD50); conditions: mouse, in vivo
Protocol: The catechol derivative having normal type saturated lower alkyl groups on the ring was administered by intravenous injection (i.v.), intraperitoneal injection (i.p.) or oral route (p.o.) to male ddy mice of 4-week old. The LD50 values (mg/kg) were measured by an ordinary method.

[3] = system: production and secretion of NGF on L-M cells; assay: Promoting action for the production and secretion of NGF on L-M cells of mouse (ELISA); assay type: cell-based; conditions: Mus musculus
Excerpt: Catecholamines have also been found in a relatively high concentration to accelerate these functions without being mediated by adrenergic receptors [Y. Furukawa et al., J. Biol. Chem., 261, 6039-6047 (1986)].
The compound having a high activity in Table 1, that is, the catechol derivative having a n-alkyl group in the 3 or 4 position on the ring has been observed an acute cell toxicity in higher concentrations. The toxicity was considered the result of two hydroxyl groups in the catechol structure. Then the hydroxyl groups were esterified or etherified and the resulting derivative was examined the effect on the activity for the production and secretion of NGF.
The experiment was performed according to the procedures of Y. Furukawa et al. which is described in J. Bis Chem., 261, 6039-6047 (1986).
The medium was cultured for 3 days at a temperature of 37° C. After completing the confluency (about 10^6 cells/well), the medium was changed to Medium 199 (0.5 ml/well) containing 0.5% bovine serum albumin (Fraction V, a product of Armour Co.). The sample of the derivative is contained in the medium at a prescribed concentration as illustrated in the Tables.

[4] = 24 h, read-out: Ratio of NGF increase, Table 3, 0.10 mM, 24 hours, mean ± SE of four determinations
[5] = 24 h, read-out: Ratio of NGF increase, Table 3, 0.25 mM, 24 hours, mean ± SE of four determinations
[6] = 24 h, read-out: Ratio of NGF increase
[7] = 24 h, Table 1, 0.03 mM, 24 hours, mean ± SE of four determinations, read-out: Ratio of NGF increase
[8] = 24 h, Table 1, 0.10 mM, 24 hours, mean ± SE of four determinations, read-out: Ratio of NGF increase
[9] = 24 h, read-out: Ratio of NGF increase, 24-hr culture
[10] = 48 h, read-out: Ratio of NGF increase, 48-hr culture

| Structure (SMILES) | fold induction at 100 µM [1, 4] | fold induction at 250 µM [1, 5] | fold induction at 30 µM [3, 7] | fold induction at 100 µM [3, 8] | further results |
| --- | --- | --- | --- | --- | --- |
| Cc1cccc(O)c1O [R = Two H, R1 = Methyl, R2 = H] | 76.3 ± 6.34 | 5.02 ± 1.98 |  |  | LD50 ([2]; ip, read-out: LD50 i.p.): > 200 mg/kg; LD50 ([2]; iv, read-out: LD50 i.v.): > 50 mg/kg; LD50 ([2]; po, read-out: LD50 p.o.): > 500 mg/kg; fold induction at 30 µM [3, 6]: 8.34 ± 0.82; fold induction at 100 µM [3, 6]: 3.92 ± 1.23 |
| Cc1ccc(O)c(O)c1C [R = Two H, R1 = Methyl, R2 = Methyl] |  |  | 2.86 ± 0.12 | 3.11 ± 0.22 |  |
| CCCCc1ccc(O)c(O)c1C [R = Two H, R1 = Methyl, R2 = n-Butyl] | 49.8 ± 3.65 | 76.2 ± 6.64 | 6.87 ± 0.6 | 7.73 ± 0.53 |  |
| CCCc1ccc(O)c(O)c1C [R = Two H, R1 = Methyl, R2 = n-Propyl] | 41.3 ± 2.55 | 61.6 ± 4.62 | 6.34 ± 0.46 | 7.25 ± 0.32 |  |
| CCC(C)c1ccc(O)c(O)c1C (centres unmarked) [R = Two H, R1 = Methyl, R2 = sec-Butyl] |  |  | 6.74 ± 0.25 | 7 ± 0.76 |  |
| Cc1c(C(C)(C)C)ccc(O)c1O [R = Two H, R1 = Methyl, R2 = tert-Butyl] | 9.65 ± 2.42 | 24.2 ± 2.73 | 2.82 ± 0.14 | 3.65 ± 0.39 |  |
| CCCCc1cccc(O)c1O [R = Two H, R1 = n-Butyl, R2 = H] | 56.2 ± 1.87 | 93.3 ± 1.65 | 8.33 ± 0.52 |  |  |
| CCCCc1c(C)ccc(O)c1O [R = Two H, R1 = n-Butyl, R2 = Methyl] |  |  | 6.33 ± 0.75 | 6.9 ± 0.62 |  |
| CCCCCc1cccc(O)c1O [R = Two H, R1 = n-Pentyl, R2 = H] | 37.2 ± 1.28 | 51.5 ± 1.4 | 5.26 ± 0.43 | 9.95 ± 0.98 |  |
| CCCc1c(C)ccc(O)c1O [R = Two H, R1 = n-Propyl, R2 = Methyl] |  |  | 6.09 ± 0.65 | 6.98 ± 0.51 |  |
| CC(=O)Oc1ccc(C)cc1OC(C)=O [R = Two acetyl, R1 = H, R2 = Methyl] |  |  |  |  | fold induction at 100 µM ([1]; 24 h, read-out: Ratio of NGF increase, 24-hr culture, Table 4, 0.10 mM, 24-hr culture): 49.8 ± 6.44; fold induction at 250 µM ([1]; 24 h, read-out: Ratio of NGF increase, 24-hr culture, Table 4, 0.25 mM, 24-hr culture): 41.2 ± 7.32; fold induction at 100 µM ([1]; 48 h, read-out: Ratio of NGF increase, 48-hr culture, Table 4, 0.10 mM, 48-hr culture): 77.3 ± 6.52; fold induction at 250 µM ([1]; 48 h, read-out: Ratio of NGF increase, 48-hr culture, Table 4, 0.25 mM, 48-hr culture): 82.4 ± 7.24; fold induction at 30 µM ([3]; 24 h, Table 2, 0.03 mM, 24-hr culture, read-out: Ratio of NGF increase, 24-hr culture): 4.92 ± 0.94; fold induction at 150 µM ([3]; 24 h, Table 2, 0.15 mM, 24-hr culture, read-out: Ratio of NGF increase, 24-hr culture): 4.21 ± 0.4; fold induction at 30 µM ([3]; 48 h, Table 2, 0.03 mM, 48-hr culture, read-out: Ratio of NGF increase, 48-hr culture): 7.71 ± 0.86; fold induction at 150 µM ([3]; 48 h, Table 2, 0.15 mM, 48-hr culture, read-out: Ratio of NGF increase, 48-hr culture): 6.27 ± 0.75 |
| COc1ccc(C)cc1OC [R = Two methyl, R1 = H, R2 = Methyl, reference compound] |  |  |  |  | fold induction at 30 µM [3, 9]: 1.04 ± 0.07; fold induction at 150 µM [3, 9]: 0.98 ± 0.06; fold induction at 30 µM [3, 10]: 1.03 ± 0.07; fold induction at 150 µM [3, 10]: 0.98 ± 0.02 |
| CNC[C@H](O)c1ccc(O)c(O)c1 [l-epinephrine, reference compound] |  |  |  |  | fold induction at 100 µM ([1]; 24 h, read-out: activity (NGF increase), 0.10 mM): 8.62 ± 1.21; fold induction at 250 µM ([1]; 24 h, read-out: activity (NGF increase), 0.25 mM): 14.6 ± 2.67; fold induction at 50 µM ([3]; 24 h, read-out: activity (NGF increase), 0.05 mM): 6.29 ± 0.11; fold induction at 150 µM ([3]; 24 h, read-out: activity (NGF increase), 0.15 mM): 14 ± 0.83 |
